According to patent US12458021B2, “Microbiocidal derivatives” (SYNGENTA CROP PROTECTION AG, priority 2019, dated 2025):

Legend:
Format in all cases: cell-based
[1] = system: Monographella nivalis (Microdochium nivale); assay: Monographella nivalis (Microdochium nivale) / liquid culture (foot rot cereals); conditions: PDB potato dextrose broth, 24° C., 4-5 days after application, read-out: control of Monographella nivalis (inhibition of growth, photometric)
Experimental: Example B7: Monographella nivalis (Microdochium nivale)/Liquid Culture (Foot Rot Cereals) Conidia of the fungus from cryogenic storage are directly mixed into nutrient broth (PDB potato dextrose broth). After placing a (DMSO) solution of test compound into a microtiter plate (96-well format), the nutrient broth containing the fungal spores is added. The test plates are incubated at 24° C. and the inhibition of growth is determined photometrically 4-5 days after application. […] […]-190.

[2] = system: Mycosphaerella graminicola (Septoria tritici); assay: Mycosphaerella graminicola (Septoria tritici) / liquid culture (Septoria blotch); conditions: Zymoseptoria tritici, PDB potato dextrose broth, 24° C., 4-5 days after application, read-out: control of Mycosphaerella graminicola (inhibition of growth, photometric)
Experimental: (§1) Example B15: Mycosphaerella graminicola (Septoria tritici)/Liquid Culture (Septoria Blotch) Conidia of the fungus from cryogenic storage are directly mixed into nutrient broth (PDB potato dextrose broth). After placing a (DMSO) solution of test compound into a microtiter plate (96-well format), the nutrient broth containing the fungal spores is added. The test plates are incubated at 24° C. and the inhibition of growth is determined photometrically 4-5 days after application. […] […]-191.

[3] = system: Glomerella lagenarium (Colletotrichum lagenarium); assay: Glomerella lagenarium (Colletotrichum lagenarium) / liquid culture (anthracnose); conditions: Colletotrichum orbiculare, PDB potato dextrose broth, 24° C., 3-4 days after application, read-out: control of Glomerella lagenarium (inhibition of growth, photometric)
Experimental: as §1, with “B3: Glomerella lagenarium (Colletotrichum lagenarium)/Liquid” for “B15: Mycosphaerella graminicola (Septoria tritici)/Liquid”, “(Anthracnose)” for “(Septoria Blotch)”, “measured” for “determined”, “3-4” for “4-5”

Compound | inhibition at 20 ppm [1] | inhibition at 20 ppm [2] | inhibition at 20 ppm [3]
COc1ccc(Nc2nccs2)nc1C(=O)NC1CCC1(C)C (stereo not drawn) [Compound P-5, N-(2,2-dimethylcyclobutyl)-3-methoxy-6-(thiazol-2-ylamino)pyridine-2-carboxamide] | ≥ 80% |  | 
COc1ccc(Nc2cnsc2)nc1C(=O)NCC#CC(C)(C)C [Compound P-34, N-(4,4-dimethylpent-2-ynyl)-6-(isothiazol-4-ylamino)-3-methoxy-pyridine-2-carboxamide] |  | ≥ 80% | 
COc1ccc(Nc2ccc(C(F)(F)F)c(F)c2)nc1C(=O)NC(C)(C)C [Compound P-154, N-tert-butyl-6-[3-fluoro-4-(trifluoromethyl)anilino]-3-methoxy-pyridine-2-carboxamide] |  |  | ≥ 80%
CC1(C)CCC1NC(=O)c1nc(Nc2ccc3c(c2)OCO3)ccc1O (stereo not drawn) [Compound P-17, 6-(1,3-benzodioxo1-5-ylamino)-N-(2,2-dimethylcyclobutyl)-3-hydroxy-pyridine-2-carboxamide] | ≥ 80% |  | 
COc1ccc(Nc2cnsc2)nc1C(=O)NCC1(C)CCOC2(CCC2)C1 (stereo not drawn) [Compound P-84, 6-(isothiazol-4-ylamino)-3-methoxy-N-[(8-methyl-5-oxaspiro[3.5]nonan-8-yl)methyl]pyridine-2-carboxamide] |  |  | ≥ 80%
CC1(C)CCC1NC(=O)c1nc(Nc2ccc(F)nc2)ccc1O (stereo not drawn) [Compound P-13, N-(2,2-dimethylcyclobutyl)-6-[(6-fluoro-3-pyridyl)amino]-3-hydroxy-pyridine-2-carboxamide] | ≥ 80% |  | ≥ 80%
COc1ccc(Nc2ccc(Cl)c(C)c2)nc1C(=O)NCC(C)(C)C [Compound P-138, 6-(4-chloro-3-methyl-anilino)-N-(2,2-dimethylpropyl)-3-methoxy-pyridine-2-carboxamide] | ≥ 80% |  | ≥ 80%
COC(=O)N(c1cc(F)cc(F)c1)c1ccc(OC)c(C(=O)NC2CCC2(C)C)n1 (stereo not drawn) [Compound P-191, methyl N-(3,5-difluorophenyl)-N-[6-[(2,2-dimethylcyclobutyl)carbamoyl]-5-methoxy-2-pyridyl]carbamate] |  | ≥ 80% | ≥ 80%
CC1(C)CCC1NC(=O)c1nc(Nc2ccnc(Cl)c2)ccc1O (stereo not drawn) [Compound P-14, 6-[(2-chloro-4-pyridyl)amino]-N-(2,2-dimethylcyclobutyl)-3-hydroxy-pyridine-2-carboxamide] | ≥ 80% |  | ≥ 80%
COc1ccc(Nc2cncc(C(F)(F)F)c2)nc1C(=O)NC(C)(C)C [Compound P-163, N-tert-butyl-3-methoxy-6-[[5-(trifluoromethyl)-3-pyridyl]amino]pyridine-2-carboxamide] |  |  | ≥ 80%
COc1ccc(Nc2cnsc2)nc1C(=O)NCc1ccc(Oc2ccccc2)cc1 [Compound P-81, 6-(isothiazol-4-ylamino)-3-methoxy-N-[(4-phenoxyphenyl)methyl]pyridine-2-carboxamide] | ≥ 80% |  | ≥ 80%
COc1ccc(Nc2ccc3cnn(Cc4ccccc4)c3c2)nc1C(=O)NC(C)(C)C [Compound P-165, 6-[(1-benzylindazol-6-yl)amino]-N-tert-butyl-3-methoxy-pyridine-2-carboxamide] |  |  | ≥ 80%
COc1ccc(Nc2ccc(C(F)(F)F)cc2)nc1C(=O)NC(C)(C)C [Compound P-150, N-tert-butyl-3-methoxy-6-[4-(trifluoromethyl)anilino]pyridine-2-carboxamide] | ≥ 80% |  | ≥ 80%
CC(C)(C)CNC(=O)c1nc(Nc2cc(F)nc(F)c2I)ccc1O [Compound P-106, 6-[(2,6-difluoro-3-iodo-4-pyridyl)amino]-N-(2,2-dimethylpropyl)-3-hydroxy-pyridine-2-carboxamide] | ≥ 80% |  | 
CC1(C)CCC1NC(=O)c1nc(Nc2cncnc2)ccc1O (stereo not drawn) [Compound P-15, N-(2,2-dimethylcyclobutyl)-3-hydroxy-6-(pyrimidin-5-ylamino)pyridine-2-carboxamide] | ≥ 80% |  | 
COc1ccc(Nc2cc(F)cc(F)c2)nc1C(=O)NCc1cccc2c1OC(F)(F)O2 [Compound P-58, 6-(3,5-difluoroanilino)-N-[(2,2-difluoro-1,3-benzodioxol-4-yl)methyl]-3-methoxy-pyridine-2-carboxamide] |  | ≥ 80% | ≥ 80%
COc1ccc(Nc2cc(Cl)cc(Cl)c2)nc1C(=O)NCC(C)(C)C [Compound P-130, 6-(3,5-dichloroanilino)-N-(2,2-dimethylpropyl)-3-methoxy-pyridine-2-carboxamide] |  | ≥ 80% | ≥ 80%

Compound | inhibition at 20 ppm [1] | inhibition at 20 ppm [2] | inhibition at 20 ppm [3]
CC1(C)CCC1NC(=O)c1nc(Nc2cncc(F)c2)ccc1O (stereo not drawn) [Compound P-12, N-(2,2-dimethylcyclobutyl)-6-[(5-fluoro-3-pyridyl)amino]-3-hydroxy-pyridine-2-carboxamide] | ≥ 80% |  | 
COCC(=O)Oc1ccc(N(C(=O)COC)c2cc(F)cc(F)c2)nc1C(=O)NC1CCC1(C)C (stereo not drawn) [Compound P-24, [6-(3,5-difluoro-N-(2-methoxyacetyl)anilino)-2-[(2,2-dimethylcyclobutyl)carbamoyl]-3-pyridyl] 2-methoxyacetate] |  |  | ≥ 80%
COc1ccc(Nc2ccc(Cl)c(C)c2)nc1C(=O)NC(C)(C)C [Compound P-158, N-tert-butyl-6-(4-chloro-3-methyl-anilino)-3-methoxy-pyridine-2-carboxamide] |  |  | ≥ 80%
COc1cc(Nc2cc(F)cc(F)c2)nc(C(=O)NC2CCC2(C)C)c1 (stereo not drawn) [Compound P-101, 6-(3,5-difluoroanilino)-N-(2,2-dimethylcyclobutyl)-4-methoxy-pyridine-2-carboxamide] |  |  | ≥ 80%
COc1ccc(Nc2cc(F)cc(F)c2)nc1C(=O)NCC#CC(C)(C)C [Compound P-28, 6-(3,5-difluoroanilino)-N-(4,4-dimethylpent-2-ynyl)-3-methoxy-pyridine-2-carboxamide] |  | ≥ 80% | 
COc1ccc(Nc2cc(F)cc(F)c2)nc1C(=O)NCc1cc(C(F)(F)F)cc(C(F)(F)F)c1 [Compound P-115, N-[[3,5-bis(trifluoromethyl)phenyl]methyl]-6-(3,5-difluoroanilino)-3-methoxy-pyridine-2-carboxamide] |  | ≥ 80% | 
COc1ccc(Nc2cnsc2)nc1C(=O)NCCc1ccc(OC(F)(F)F)cc1 [Compound P-85, 6-(isothiazol-4-ylamino)-3-methoxy-N-[2-[4-(trifluoromethoxy)phenyl]ethyl]pyridine-2-carboxamide] |  |  | ≥ 80%
COc1ccc(NC2CCC2)nc1C(=O)NCC(C)(C)C [Compound P-41, 6-(cyclobutylamino)-N-(2,2-dimethylpropyl)-3-methoxy-pyridine-2-carboxamide] |  | ≥ 80% | 
COc1ccc(Nc2ccc(C)cc2)nc1C(=O)NCC(C)(C)C [Compound P-141, N-(2,2-dimethylpropyl)-3-methoxy-6-(4-methylanilino)pyridine-2-carboxamide] |  |  | ≥ 80%
COc1ccc(Nc2cnsc2)nc1C(=O)NCc1cccc2c1OC(F)(F)O2 [Compound P-82, N-[(2,2-difluoro-1,3-benzodioxol-4-yl)methyl]-6-(isothiazol-4-ylamino)-3-methoxy-pyridine-2-carboxamide] | ≥ 80% |  | ≥ 80%
COc1ccc(Nc2cc(F)c(Cl)c(F)c2)nc1C(=O)NCC(C)(C)C [Compound P-135, 6-(4-chloro-3,5-difluoro-anilino)-N-(2,2-dimethylpropyl)-3-methoxy-pyridine-2-carboxamide] |  | ≥ 80% | 
CC(C)(C)CNC(=O)c1nc(Nc2cc(F)nc(F)c2)ccc1O [Compound P-100, 6-[(2,6-difluoro-4-pyridyl)amino]-N-(2,2-dimethylpropyl)-3-hydroxy-pyridine-2-carboxamide] |  |  | ≥ 80%
COc1ccc(Nc2ccc(C)cc2)nc1C(=O)NC(C)(C)C [Compound P-161, N-tert-butyl-3-methoxy-6-(4-methylanilino)pyridine-2-carboxamide] |  |  | ≥ 80%
COc1ccc(Nc2ccc(Cl)c(Cl)c2)nc1C(=O)NC(C)(C)C [Compound P-149, N-tert-butyl-6-(3,4-dichloroanilino)-3-methoxy-pyridine-2-carboxamide] |  |  | ≥ 80%
COc1ccc(Nc2cc(F)cc(F)c2)nc1C(=O)NCC1(c2ccc(C(F)(F)F)cn2)CC1 [Compound P-72, 6-(3,5-difluoroanilino)-3-methoxy-N-[[1-[5-(trifluoromethyl)-2-pyridyl]cyclopropyl]methyl]pyridine-2-carboxamide] |  |  | ≥ 80%
COc1ccc(Nc2cc(F)cc(F)c2)nc1C(=O)NC1CCN(S(=O)(=O)C(C)C)CC1 [Compound P-77, 6-(3,5-difluoroanilino)-N-(1-isopropylsulfonyl-4-piperidyl)-3-methoxy-pyridine-2-carboxamide] |  |  | ≥ 80%
